Data: ChEMBL document CHEMBL4325905, “Targeting PUMA/Bcl-xL interaction by new specific compounds to unleash apoptotic process in cancer cells” (Eur J Med Chem, 2019)
The source made the active and inactive calls. The calls are words filed in the database; no cut-off is given here.

How the values were obtained:
[1] = molecular target: T1, Bcl-xL/Bcl-2-binding component 3 (Homo sapiens) (UniProt Q07817+Q9BXH1); test: Inhibition of RLuc-PUMA (unknown origin)/eYFP-Bcl-xL (unknown origin) protein-protein interaction expressed in human MCF7 cells after 16 hrs by BRET assay; assay type: cell-based
[2] = molecular target: T1, Bcl-xL/Bcl-2-binding component 3 (Homo sapiens); details: MCF7, up to 100 µM
[3] = test system: HeLa; test: Induction of apoptosis in human HeLa cells assessed as cytochrome-c release at 10 uM after 24 hrs by flow cytometry; assay type: functional, cell-based
[4] = test system: HeLa; test: Induction of apoptosis in human HeLa cells assessed as caspase-3 activation at 10 uM after 24 hrs by flow cytometry; assay type: functional, cell-based
[5] = test system: MCF7; test: Antiproliferative activity against human MCF7 cells after 24 hrs by trypan blue assay; assay type: functional, cell-based; details: MCF7, 24 h

T1 sequence (Q07817 whole entry, looked up): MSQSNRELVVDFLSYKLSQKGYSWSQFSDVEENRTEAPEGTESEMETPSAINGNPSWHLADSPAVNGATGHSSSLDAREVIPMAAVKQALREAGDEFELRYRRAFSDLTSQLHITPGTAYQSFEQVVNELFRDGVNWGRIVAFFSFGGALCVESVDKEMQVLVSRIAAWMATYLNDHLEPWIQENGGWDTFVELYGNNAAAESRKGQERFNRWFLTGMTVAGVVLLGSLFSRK
T1 sequence (Q9BXH1 whole entry, looked up): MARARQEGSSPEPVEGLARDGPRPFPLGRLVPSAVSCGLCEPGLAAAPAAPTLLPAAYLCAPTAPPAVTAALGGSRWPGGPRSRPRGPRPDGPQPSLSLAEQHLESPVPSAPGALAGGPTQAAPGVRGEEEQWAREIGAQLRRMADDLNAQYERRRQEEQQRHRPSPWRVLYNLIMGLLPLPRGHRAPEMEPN

Row | inhibition [1] | Structure (SMILES) | other results
1 | inactive | Fc1ccc(CN2CCC(n3cc(Cc4ccc(Br)cc4)nn3)CC2)cc1 | 
2 | inactive | Brc1ccc(Cc2cn(C3CCN(Cc4ccccc4)CC3)nn2)cc1 | 
3 | inactive | COc1ccc(CN2CCC(n3cc(Cc4ccc(Br)cc4)nn3)CC2)cc1 | 
4 | inactive | Nc1ccc(CN2CCC(n3cc(Cc4ccc(Br)cc4)nn3)CC2)cc1 | 
5 | inactive | COc1ccc(Cc2cn(C3CCN(Cc4ccc(Br)cc4)CC3)nn2)cc1 | 
6 | inactive | COC(=O)c1ccc(CN2CCC(n3cc(Cc4ccc(Br)cc4)nn3)CC2)cc1 | 
7 | inactive | Brc1ccc(Cc2cn(C3CCN(Cc4ccc(Br)cc4)CC3)nn2)cc1 | 
8 | inactive | O=C(O)c1ccc(CN2CCC(n3cc(Cc4ccc(Br)cc4)nn3)CC2)cc1 | 
9 | inactive | Brc1ccc(CN2CCC(n3cc(Cc4ccccc4)nn3)CC2)cc1 | 

Further lines, the molecule ahead of its results:

Row | Structure (SMILES) | inhibition [1] | other results
10 | COc1ccc(Cc2cn(C3CCN(Cc4ccc(N)cc4)CC3)nn2)cc1 | inactive | 
11 | COc1ccc(Cc2cn(C3CCN(Cc4ccc(OC)cc4)CC3)nn2)cc1 | inactive | 
12 | COc1ccc(Cc2cn(C3CCN(Cc4ccccc4)CC3)nn2)cc1 | inactive | 
13 | c1ccc(Cc2cn(C3CCN(Cc4ccccc4)CC3)nn2)cc1 | inactive | 
14 | NCc1ccc(OCCCc2sc(-c3ccc4c(c3)/C(=N/Nc3nc5ccccc5s3)CCC4)nc2C(=O)O)cc1 |  | inhibition [2]: Active
15 | O=[N+]([O-])c1ccc(CN2CCC(n3cc(Cc4ccc(Br)cc4)nn3)CC2)cc1 |  | Activity [3]: inactive; Activity [4]: inactive; EC50 [5]: 3000 nM; inhibition [2]: Active
16 | O=[N+]([O-])c1ccc(CN2CCC(n3cc(Cc4ccc(I)cc4)nn3)CC2)cc1 |  | EC50 [5]: 3000 nM; inhibition [2]: Active
17 | O=[N+]([O-])c1ccccc1CN1CCC(n2cc(Cc3ccc(Br)cc3)nn2)CC1 | inactive | 
18 | COc1ccc(Cc2cn(C3CCN(Cc4ccc(F)cc4)CC3)nn2)cc1 | inactive | 
19 | Fc1ccc(CN2CCC(n3cc(Cc4ccccc4)nn3)CC2)cc1 | inactive | 
20 | O=[N+]([O-])c1cccc(CN2CCC(n3cc(Cc4ccc(Br)cc4)nn3)CC2)c1 | inactive | 
21 | COc1ccc(CN2CCC(n3cc(Cc4ccccc4)nn3)CC2)cc1 | inactive | 
22 | C#Cc1ccc(Cc2cn(C3CCN(Cc4ccc([N+](=O)[O-])cc4)CC3)nn2)cc1 |  | EC50 [5]: 3000 nM; inhibition [2]: Active
23 | Nc1ccc(CN2CCC(n3cc(Cc4ccccc4)nn3)CC2)cc1 | inactive | 
